Assay [1] concerns the target T1, CB1 (Rattus norvegicus, UniProt P20272). In words: CB1 receptor binding affinity (Ki). How it is done:
Some disclosed compounds were tested for CB1 and CB2 receptor binding affinity (Tables 1, 2, 3, 4, 5, 6). As used herein “binding affinity” is represented by the Ki value. The Ki value is the affinity constant and describes the affinity of the compound for the receptor. […] A detailed description of the methods used to test “binding affinity” of compounds is given in Makriyannis, et al., US 2007, 0135388 and in Papahatjis, et al. J. Med. Chem. (2007) 4048, the content of each of which is hereby incorporated by reference.

Another assay deals with CB2 receptor (UniProt P47936). In words: CB2 receptor binding affinity (Ki). As to conditions: read-out: CB2 receptor Ki. The protocol:
Some disclosed compounds were tested for CB1 and CB2 receptor binding affinity (Tables 1, 2, 3, 4, 5, 6). As used herein “binding affinity” is represented by the Ki value. The Ki value is the affinity constant and describes the affinity of the compound for the receptor. The lower the Ki value, the higher the affinity of the compound for the receptor. A detailed description of the methods used to test “binding affinity” of compounds is given in Makriyannis, et al., US 2007, 0135388 and in Papahatjis, et al. J. Med. Chem. (2007) 4048, the content of each of which is hereby incorporated by reference.

Assay [2] has as its target T1, CB1. Description: cyclic adenosine monophosphate (cAMP) assay at CB1. Format: cell-based. The settings on record: for EC50: read-out: Functional Potency (EC50); for Emax: read-out: % Efficacy. How it is done: (§1) Functional characterization of some of the disclosed compounds was performed by using the cyclic adenosine monophosphate (cAMP) assay. The functional potency of the compound is represented by the EC50 value. The lower the EC50 value, the higher the functional potency. A detailed description of the cyclic adenosine monophosphate (cAMP) assay is given in Nikas et al. J. Med. Chem. (2010) 6996.

Another assay has as its target CB2 (Homo sapiens, UniProt P34972). Description: cyclic adenosine monophosphate (cAMP) assay at CB2. Format: cell-based. The settings on record: for EC50: read-out: Functional Potency (EC50); for Emax: read-out: % Efficacy. How it is done: as §1
The test system of the next assay is C57BL6/J mice. Description: Analgesia assay (tail immersion / tail withdrawal test). The format is in vivo. How it is done:
(§2) Some of the disclosed compounds were tested in vivo using two well defined rodent assays for cannabinergic activity, the analgesia and the hypothermia assays. The analgesia assay (tail immersion test) determines the ability of the test compound to activate cannabinergic signaling, through modulation of cannabinoid receptors, and thereby reduce nociceptive pain. The hypothermia test determines the ability of a test compound to act as a central CB1 agonist and decrease the body temperature. […] The details of both assays are described below.
C57BL6/J mice (Jackson Laboratories, Bar Harbor Me.) were single housed at least 1 h before start of experiment. Food and water are removed immediately before the first injection.
Route of administration=i.p. Volume=1 mL/100 g body weight.
Tail withdrawal test: 52° C. water bath (use bags). • a. Bag is made of stapled surgery sheets to form a small pocket the size of a mouse. • b. […] The tip of the mouse's tail is dipped into the warm water, with 1 cm submerged. • d. […] B. Hypothermia Assay

For a further assay, the system named is C57BL/6 J mice. In words: Hypothermia assay (rectal temperature). Format: in vivo. As to conditions: dose of 3 mg/kg, FIG. 2. How it is done:
as §2
C57BL/6 J mice (Charles River Breeding Laboratories, Wilmington, Mass., USA) weighing 30 to 35 g were group housed five to a cage, in a temperature-controlled (20° C.) animal facility. Mice were habituated to the animal facility for at least 1 week prior to experiments with a 12-h light/dark cycle (lights are on at 7:00 AM). Mice were given free access to food and water. Experimentally naïve mice were used for each dose condition, and the mice were tested during the light phase.
Rectal temperature was measured in mice using a rectal probe of a digital laboratory thermometer, RET-3-ISO, type T thermocouple (Physitemp Instruments Inc, Clifton, N.J.). The lubricated probe was inserted approximately 2.0 cm into the rectum for approximately 30 sec, prior to each recording. […]

Read-outs that look alike come from different tables or passages of the source. Some results are limits rather than exact numbers.

Sequence of CB2 (P34972 whole entry, species assumed): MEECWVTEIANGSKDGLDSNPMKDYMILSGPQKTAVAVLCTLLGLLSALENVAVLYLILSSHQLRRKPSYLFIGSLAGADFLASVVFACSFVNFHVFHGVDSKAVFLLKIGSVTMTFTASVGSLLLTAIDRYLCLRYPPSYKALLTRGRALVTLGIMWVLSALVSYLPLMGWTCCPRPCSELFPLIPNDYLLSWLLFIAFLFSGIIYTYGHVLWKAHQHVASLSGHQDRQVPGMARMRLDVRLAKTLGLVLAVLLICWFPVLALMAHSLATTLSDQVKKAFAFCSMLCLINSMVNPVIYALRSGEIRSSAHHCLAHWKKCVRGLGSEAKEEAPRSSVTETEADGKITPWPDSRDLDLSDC
T1 sequence (P20272 whole entry): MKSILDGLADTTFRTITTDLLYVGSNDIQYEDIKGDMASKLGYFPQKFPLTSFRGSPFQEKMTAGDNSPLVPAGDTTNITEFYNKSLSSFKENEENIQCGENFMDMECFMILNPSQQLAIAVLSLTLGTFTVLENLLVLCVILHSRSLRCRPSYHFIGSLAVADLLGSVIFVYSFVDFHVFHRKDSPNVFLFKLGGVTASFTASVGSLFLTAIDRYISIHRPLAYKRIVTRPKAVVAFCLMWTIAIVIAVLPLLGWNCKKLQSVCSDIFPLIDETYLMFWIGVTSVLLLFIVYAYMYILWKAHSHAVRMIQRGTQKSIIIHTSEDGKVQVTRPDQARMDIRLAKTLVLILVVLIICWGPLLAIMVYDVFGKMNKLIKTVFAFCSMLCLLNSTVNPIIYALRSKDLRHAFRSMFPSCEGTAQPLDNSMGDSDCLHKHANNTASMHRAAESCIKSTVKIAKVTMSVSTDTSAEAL

As a reminder, the Ki is a measure of affinity in units of concentration, obtained from inhibition or displacement. Usually EC50 stands for the midpoint of the concentration-response curve. “2-[(1S,6S)-3-(Hydroxymethyl)-6-(1-methylethenyl)-2-cyclohexen-1-yl]-5-(6-morpholino-2-methylhexane-2-yl)-1,3-dimethoxy-benzene [Compound 74]”: the inhibitory constant (Ki) at CB1 [1] (read-out: CB1 receptor Ki) worked out at 0.07 µM. Further, the Ki on CB2 receptor is 0.016 µM. In addition, on CB1 [2], the “% Efficacy” value came out at 51%, the “Functional Activity” value is “Agonist at CB1” and the EC50 came to 0.0504 µM. Moreover, on CB2, the “% Efficacy” value is 28%, the “Functional Activity” value is recorded as “Partial agonist at CB2” and the EC50 came out at 0.0067 µM.

On to `C=C(C)[C@H]1CCC(CO)=C[C@@H]1c1c(O)cc(C2(CCCCCC)CC2)cc1O` [Compound 4.3, 2-[(1S,6S)-3-(Hydroxymethyl)-6-(1-methylethenyl)-2-cyclohexen-1-yl]-5-(1-hexyl-cyclopropyl)resorcinol], for which, on CB1 [1], the affinity corresponds to a Ki of 0.016 µM. The Ki at CB2 receptor came to 0.014 µM. Further, at CB1 [2], the “Functional Activity” value is recorded as “Agonist at CB1”, the Emax worked out at 58% and the EC50 is 0.0016 µM. In addition, on CB2, the “Functional Activity” value was “Partial agonist at CB2”, the Emax worked out at 35% and the EC50 was determined as 0.012 µM.

At CB1 [1], `C=C(C)[C@H]1CCC(CO)=C[C@@H]1c1c(O)cc(C2(CCCCCC)CCCC2)cc1O` [Compound 4.4, 2-[(1S,6S)-3-(Hydroxymethyl)-6-(1-methylethenyl)-2-cyclohexen-1-yl]-5-(1-hexyl-cyclopentyl)resorcinol] registered a Ki of 0.078 µM. The inhibition constant (Ki) at CB2 receptor is 0.016 µM. At CB1 [2], the “Functional Activity” value is listed as “Agonist at CB1”, the Emax worked out at 81% and the EC50 was found to be 0.017 µM.

On to `C=C(C)[C@H]1CCC(CO)=C[C@@H]1c1c(O)cc(C2(CCCCCC)SCCS2)cc1O` [Compound 4.6, 2-[(1S,6S)-3-(Hydroxymethyl)-6-(1-methylethenyl)-2-cyclohexen-1-yl]-5-(2-hexyl-1,3-dithiolane-2-yl)resorcinol], for which the Ki on CB1 [1] was determined as 0.071 µM. For the same compound, at CB2 receptor, the inhibitory constant (Ki) came out at 0.028 µM. On CB1 [2], the “Functional Activity” value is given as “Agonist at CB1”, the Emax worked out at 84% and the half-maximal effective concentration (EC50) stood at 0.267 µM.

As for `C=C(C)[C@H]1CCC(CO)=C[C@@H]1c1c(O)cc(C2(CCCCCC#N)CCC2)cc1O` [Compound 34, 2-[(1S,6S)-3-(Hydroxymethyl)-6-(1-methylethenyl)-2-cyclohexen-1-yl]-5-[(5-cyanopentyl)cyclobutyl]resorcinol], at CB1 [1], the Ki was determined as 0.02 µM. Also, the Ki at CB2 receptor came out at 0.0055 µM. Besides, at CB1 [2], the “Functional Activity” value is “Agonist at CB1”, the Emax stood at 83% and the 50% effective concentration (EC50) amounted to 0.0032 µM.

`CCCCCCC1(c2cc(O)c([C@H]3C=C(C)[C@H]4C[C@@H]3C4(C)C)c(O)c2)SCCS1` [Compound 40.6, (+)-2-[(1R,4S,5S)-2,6,6-trimethylbicylco[3.1.1]hept-2-en-4-yl]-5-(2-hexyl-1,3-dithiolane-2-yl)resorcinol]: at CB1 [1], the affinity corresponds to a Ki of 0.0192 µM. Also, the Ki at CB2 receptor was found to be 0.0079 µM. On CB1 [2], the “Functional Activity” value is “Partial agonist at CB1”, the Emax is 38% and the EC50 stood at 0.021 µM. For the same compound, on CB2, the “Functional Activity” value is on record as “Partial agonist at CB2”, the Emax was found to be 38% and the EC50 is 0.0087 µM.

Regarding `CC1=C[C@H](c2c(O)cc(C3(CCCCCC#N)CCCC3)cc2O)[C@@H]2C[C@H]1C2(C)C` [Compound 41, (+)-2-[(1R,4S,5S)-2,6,6-trimethylbicylco[3.1.1]hept-2-en-4-yl]-5-[(5-cyanopentyl)cyclopentyl]resorcinol], the Ki on CB1 [1] was determined as 0.0026 µM; on CB2 receptor it was 0.0008 µM. In the assay with C57BL6/J mice (dose of 3 mg/Kg, FIG. 1), the “antinociception (analgesia)” value was “maximum possible effect”.

For the compound `C=C(C)[C@@H]1CCC(=O)C[C@H]1c1c(O)cc(C(C)(C)CCCCCC)cc1O` [Compound 61.2, (3R,4R)-3-[4-(1′,1′-Dimethylheptyl)-2,6-dihydroxyphenyl]-4-isopropenylcyclohexan-1-one], the values for the Ki on CB1 [1] and at CB2 receptor were above 1 µM and 0.037 µM, respectively.

For the compound `C=C(C)[C@@H]1CC[C@@H](N2CCOCC2)C[C@H]1c1c(O)cc(C(C)(C)CCCCCC)cc1O` [Compound 62, (1R,3R,4R)-3-[4-(1′,1′-Dimethylheptyl)-2,6-dihydroxyphenyl]-4-isopropenyl-1-morpholinylcyclohexane], the Ki worked out at 0.069 µM on CB1 [1] and 0.014 µM at CB2 receptor.

Turning to `C=C(C)[C@H]1CCC(=O)C[C@@H]1c1c(O)cc(C(C)(C)CCCCCC)cc1O` [Compound 66.2, (3S,4S)-3-[4-(1′,1′-Dimethylheptyl)-2,6-dihydroxyphenyl]-4-isopropenylcyclohexan-1-one], the Ki on CB1 [1] was 0.03 to 0.06 µM; on CB2 receptor, 0.041 µM.

On to `C=C(C)C1CCC(O)CC1c1c(O)cc(C(C)(C)CCCCCC)cc1O` [Compound 68, (1R,3R,4R)-3-[4-(1′,1′-Dimethylheptyl)-2,6-dihydroxyphenyl]-4-isopropenyl-1-hydroxycyclohexane], for which the Ki is above 1 µM on CB1 [1] and 0.033 µM at CB2 receptor.

Take `C=C(C)[C@H]1CCC(CO)=C[C@@H]1c1c(O)cc(C(C)(C)CCCCN2CCOCC2)cc1O` [Compound 71, 2-[(1S,6S)-3-(Hydroxymethyl)-6-(1-methylethenyl)-2-cyclohexen-1-yl]-5-(6-morpholino-2-methylhexane-2-yl)resorcinol]: the affinity on CB1 [1] corresponds to a Ki of 0.006 µM. At CB2 receptor, the inhibition constant (Ki) came to 0.003 µM. Besides, on CB1 [2], the “Functional Activity” value is listed as “Agonist at CB1”, the Emax turned out to be 88% and the EC50 was 0.0014 µM. On CB2, the “Functional Activity” value is on record as “Partial agonist at CB2”, the Emax was found to be 42% and the concentration giving a half-maximal response (EC50) turned out to be 0.0004 µM. Also, the centrally mediated hypothermia entry in the assay on C57BL/6 J mice is reported as “does not show significant hypothermia”.

As for “(−)-Δ^9-tetrahydrocannabinol [(−)-Δ^9-THC, reference compound]”, the “potency in the analgesia assay relative to compound 41 (times less potent)” value in the assay on C57BL6/J mice (same test as compound 41) is “approximately 10 times”.

The values above are taken from patent publication US9517989B2, “2-cycloalkyl resorcinol cannabinergic ligands” (priority 2012, dated 2016).
